Patent US12157730B2, “Heteroaryl derivative, method for producing same, and pharmaceutical composition comprising same as effective component” (VORONOI INC., priority 2019, dated 2024)

Target: T1, Ba/F3 cell EGFR Exon20 ins NPH (Homo sapiens, UniProt P00533, INS773NPH)
T1 construct: expressed in transfected cells; host or cells: Ba/F3
Test: Ba/F3 cell proliferation suppression, EGFR Exon20 ins NPH
Type: cell-based
Settings: GI50 class; Ba/F3 cell line with NPH inserted at Exon20 of EGFR; 72 hours
Description: The following experiment was carried out to evaluate the suppression activity of the compounds according to the present invention against proliferation of Ba/F3 and lung cancer cells which express EGFR mutations.
Of the cancer cell lines expressing the EGFR gene, A549 was cultured after adding 10% FBS (HyClone) to DMEM (Invitrogen), and RPMI-1640 (Invitrogen) with 10% FBS was used for the other cancer cells. For the Ba/F3 cells, RPMI-1640 with 10% FBS and 5 ng/ml IL-3 (R&D Systems) was used. The transduced Ba/F3 cells were cultured by adding 1 ug/ml puromycin (Invitrogen) to the same medium.
24 hours before treatment with the compounds, 3000 to 5000 cells were distributed into each well of a white clear bottom 96 well plate (Corning). The compounds were diluted in dimethylsulfoxide (dilution ratio 3:1; 12 concentrations total) and injected 0.5 ul each for a final concentration of 0.3 nM to 50 um. As for measurement of live cells, 72 hours after treatment with the compounds, a CellTiter-Glo luminescent cell-viability reagent (Promega) was used to store the cells at room temperature for 10 minutes, followed by measurement of luminescence using a reader (SynergyNeo, Biotek). Each test was repeated three times.
The result was calculated as a cell growth ratio (%) compared to a control. The program GraphPad Prism version 5.0 was used to draw the graphs and calculate the GI50 values.

## C=CC(=O)Nc1cc(Nc2cc(N3OCC[C@@H]3Cc3cccc(F)c3Cl)ncn2)c(OC)cc1N1CCC(N2CCN(C3CC3)[C@@H](C)C2)CC1 [compound 1037, N-(5-((6-((S)-3-(2-chloro-3-fluorobenzyl)isoxazolidine-2-yl)pyrimidine-4-yl)amino)-2-(4-((S)-4-cyclopropyl-3-methylpiperazine-1-yl)piperidine-1-yl)-4-methoxyphenyl) acrylamide]
  Ba/F3 (NPH) Activity: A (GI50 < 50 nM)

## C=CC(=O)Nc1cc(Nc2cc(N3OCC[C@@H]3c3ccc(F)c(Cl)c3F)ncn2)c(OC)cc1N1CCC(N2CCN(C(C)C)CC2)CC1 [compound 668, N-(5-((6-((R)-3-(3-chloro-2,4-difluorophenyl)isoxazolidine-2-yl)pyrimidine-4-yl)amino)-2-(4-(4-isopropylpiperazine-1-yl)piperidine-1-yl)-4-methoxyphenyl) acrylamide]
  Ba/F3 (NPH) Activity: B (50 nM ≤ GI50 < 500 nM)

## C=CC(=O)Nc1cc(Nc2cc(N3OCC[C@@H]3c3cc(F)ccc3F)ncn2)c(OC)cc1N1CCN(C2CC2)CC1 [compound 299, N-(2-(4-cyclopropylpiperazine-1-yl)-5-((6-((R)-3-(2,5-difluorophenyl)isoxazolidine-2-yl)pyrimidine-4-yl)amino)-4-methoxyphenyl) acrylamide]
  Ba/F3 (NPH) Activity: A (GI50 < 50 nM)

## C=CC(=O)Nc1cc(Nc2cc(N3OCC[C@@H]3c3cc(F)cc(F)c3)ncn2)c(OC)cc1N1CCC(N2C[C@H](C)N(C3CC3)C[C@H]2C)CC1 [Example 107, N-(2-(4-((2R,5S)-4-cyclopropyl-2,5-dimethylpiperazine-1-yl)piperidine-1-yl)-5-((6-((R)-3-(3,5-difluorophenyl)isoxazolidine-2-yl)pyrimidine-4-yl)amino)-4-methoxyphenyl) acrylamide]
  Ba/F3 (NPH) Activity: A (GI50 < 50 nM)

## C=CC(=O)Nc1cc(Nc2cc(N3OCC[C@@H]3Cc3ccccc3)ncn2)c(OC)cc1N1C[C@@H]2C[C@H]1CN2CC [compound 950, N-(5-((6-((S)-3-benzylisoxazolidine-2-yl)pyrimidine-4-yl)amino)-2-((1S,4S)-5-ethyl-2,5-diazabicyclo [2.2.1]heptane-2-yl)-4-methoxyphenyl) acrylamide]
  Ba/F3 (NPH) Activity: A (GI50 < 50 nM)

## C=CC(=O)Nc1cc(Nc2cc(N3OCC[C@@H]3c3cccc(Cl)c3C)ncn2)c(OC)cc1N1CCC(N2CCN(C3CC3)[C@H](C)C2)CC1 [Example 152, N-(5-((6-((R)-3-(3-chloro-2-methylphenyl)isoxazolidine-2-yl)pyrimidine-4-yl)amino)-2-(4-((R)-4-cyclopropyl-3-methylpiperazine-1-yl)piperidine-1-yl)-4-methoxyphenyl) acrylamide]
  Ba/F3 (NPH) Activity: A (GI50 < 50 nM)

## C=CC(=O)Nc1cc(Nc2cc(N3OCC[C@@H]3c3cccs3)ncn2)c(OC)cc1N1CCN(C)CC1 [compound 929, N-(4-methoxy-2-(4-methylpiperazine-1-yl)-5-((6-((R)-3-(thiophene-2-yl)isoxazolidine-2-yl)pyrimidine-4-yl)amino)phenyl)acrylamide]
  Ba/F3 (NPH) Activity: A (GI50 < 50 nM)

## C=CC(=O)Nc1cc(Nc2cc(N3OCC[C@@H]3c3ccc(F)cc3F)ncn2)c(OC)cc1N1CCN(CC2CC2)CC1 [compound 380, N-(2-(4-(cyclopropylmethyl)piperazine-1-yl)-5-((6-((R)-3-(2,4-difluorophenyl)isoxazolidine-2-yl)pyrimidine-4-yl)amino)-4-methoxyphenyl) acrylamide]
  Ba/F3 (NPH) Activity: A (GI50 < 50 nM)

## C=CC(=O)Nc1cc(Nc2cc(N3OCC[C@@H]3c3cc(F)ccc3F)ncn2)c(OC)cc1N1CC[C@H](N(C)C)C1 [compound 301, N-(5-((6-((R)-3-(2,5-difluorophenyl)isoxazolidine-2-yl)pyrimidine-4-yl)amino)-2-((S)-3-(dimethylamino)pyrolidine-1-yl)-4-methoxyphenyl) acrylamide]
  Ba/F3 (NPH) Activity: A (GI50 < 50 nM)

## C=CC(=O)Nc1cc(Nc2cc(N3OCC[C@@H]3c3cc(F)cc(F)c3)ncn2)c(OC)cc1N1CCC(N2C[C@H]3COC[C@H]3C2)CC1 [Example 105, N-(5-((6-((R)-3-(3,5-difluorophenyl)isoxazolidine-2-yl)pyrimidine-4-yl)amino)-4-methoxy-2-(4-((3aR, 6aS)-tetrahydro-1H-puro[3,4-c]pyrrole-5(3H)-yl)piperidine-1-yl)phenyl)acrylamide]
  Ba/F3 (NPH) Activity: A (GI50 < 50 nM)

## C=CC(=O)Nc1cc(Nc2cc(N3OCC[C@@H]3c3cc(F)cc(F)c3)ncn2)c(OC)cc1N1CCC(N2C[C@@H](C)N(CC)[C@@H](C)C2)CC1 [compound 827, N-(5-((6-((R)-3-(3,5-difluorophenyl)isoxazolidine-2-yl)pyrimidine-4-yl)amino)-2-(4-((3S,5R)-4-ethyl-3,5-dimethylpiperazine-1-yl)piperidine-1-yl)-4-methoxyphenyl) acrylamide]
  Ba/F3 (NPH) Activity: A (GI50 < 50 nM)

## C=CC(=O)Nc1cc(Nc2cc(N3OCC[C@@H]3c3ccc(F)c(Cl)c3)ncn2)c(OC)cc1N1CCC(N2C[C@H]3C[C@@H]2CO3)CC1 [Example 257, N-(2-(4-((1R,4R)-2-oxa-5-azabicyclo[2.2.1]heptane-5-yl)piperidine-1-yl)-5-((6-((R)-3-(3-chloro-4-fluorophenyl)isoxazolidine-2-yl)pyrimidine-4-yl)amino)-4-methoxyphenyl) acrylamide]
  Ba/F3 (NPH) Activity: A (GI50 < 50 nM)

## C=CC(=O)Nc1cc(Nc2cc(N3OCC[C@@H]3c3ccccc3)ncn2)c(OC)cc1N1CCC(N2C[C@H]3C[C@@H]2CN3CC)CC1 [compound 738, N-(2-(4-((1R,4R)-5-ethyl-2,5-diazabicyclo [2.2.1]heptane-2-yl)piperidine-1-yl)-4-methoxy-5-((6-((R)-3-phenylisoxazolidine-2-yl)pyrimidine-4-yl)amino)phenyl) acrylamide]
  Ba/F3 (NPH) Activity: A (GI50 < 50 nM)

## C=CC(=O)Nc1cc(Nc2cc(N3OCC[C@@H]3c3cccc(Cl)c3Cl)ncn2)c(OC)cc1N1CCC(N2CC[C@@H](N(C)C)C2)CC1 [compound 610, N-(5-((6-((R)-3-(2,3-dichlorophenyl)isoxazolidine-2-yl)pyrimidine-4-yl)amino)-2-(4-((R)-3-(dimethylamino)pyrolidine-1-yl)piperidine-1-yl)-4-methoxyphenyl) acrylamide]
  Ba/F3 (NPH) Activity: B (50 nM ≤ GI50 < 500 nM)

## C=CC(=O)Nc1cc(Nc2cc(N3OCC[C@@H]3c3ccc(F)c(Cl)c3F)ncn2)c(OC)cc1N1CCC(N(C)C)CC1 [compound 638, N-(5-((6-((R)-3-(3-chloro-2,4-difluorophenyl)isoxazolidine-2-yl)pyrimidine-4-yl)amino)-2-(4-(dimethylamino)piperidine-1-yl)-4-methoxyphenyl) acrylamide]
  Ba/F3 (NPH) Activity: A (GI50 < 50 nM)

## C=CC(=O)Nc1cc(Nc2cc(N3OCC[C@H]3c3c(F)cccc3F)ncn2)c(OC)cc1N(C)CCN(C)C [compound 306, N-(5-((6-((S)-3-(2,6-difluorophenyl)isoxazolidine-2-yl)pyrimidine-4-yl)amino)-2-((2-(dimethylamino)ethyl)(methyl)amino)-4-methoxyphenyl) acrylamide]
  Ba/F3 (NPH) Activity: B (50 nM ≤ GI50 < 500 nM)

## C=CC(=O)Nc1cc(Nc2cc(N3OCC[C@@H]3c3cc(F)ccc3F)ncn2)c(OC)cc1N1CCC(N2C[C@H]3C[C@@H]2CO3)CC1 [Example 259, N-(2-(4-((1R,4R)-2-oxa-5-azabicyclo[2.2.1]heptane-5-yl)piperidine-1-yl)-5-((6-((R)-3-(2,5-difluorophenyl)isoxazolidine-2-yl)pyrimidine-4-yl)amino)-4-methoxyphenyl) acrylamide]
  Ba/F3 (NPH) Activity: A (GI50 < 50 nM)

## C=CC(=O)Nc1cc(Nc2cc(N3OCC[C@@H]3c3c(F)ccc(F)c3F)ncn2)c(OC)cc1N1CCN(CC)CC1 [compound 631, N-(2-(4-ethylpiperazine-1-yl)-4-methoxy-5-((6-((R)-3-(2,3,6-trifluorophenyl)isoxazolidine-2-yl)pyrimidine-4-yl)amino)phenyl)acrylamide]
  Ba/F3 (NPH) Activity: B (50 nM ≤ GI50 < 500 nM)

## C=CC(=O)Nc1cc(Nc2cc(N3OCC[C@@H]3c3cc(F)cc(F)c3)ncn2)c(OC)cc1N1CCC(N2CCN(C(C)CC)CC2)CC1 (stereo partly drawn) [compound 894, N-(2-(4-(4-(sec-butyl)piperazine-1-yl)piperidine-1-yl)-5-((6-((R)-3-(3,5-difluorophenyl)isoxazolidine-2-yl)pyrimidine-4-yl)amino)-4-methoxyphenyl) acrylamide]
  Ba/F3 (NPH) Activity: A (GI50 < 50 nM)

## C=CC(=O)Nc1cc(Nc2cc(N3OCC[C@@H]3c3cccc(Cl)c3Cl)ncn2)c(OC)cc1N1CCC(N2CCN(CC3CC3)CC2)CC1 [Example 204, N-(2-(4-(4-(cyclopropylmethyl)piperazine-1-yl)piperidine-1-yl)-5-((6-((R)-3-(2,3-dichlorophenyl)isoxazolidine-2-yl)pyrimidine-4-yl)amino)-4-methoxyphenyl) acrylamide]
  Ba/F3 (NPH) Activity: A (GI50 < 50 nM)
